The values that follow come from patent US9550728B2, “Thermo-responsive draw solute for forward osmosis and method for water desalination and purification using the same” (SEOUL NATIONAL UNIVERSITY R&DB FOUNDATION, priority 2011, dated 2017).

Data set [1] in a line: Measurement of transmittances of aqueous draw solute solutions according to temperature variation (UV/IR spectrometer). It counts as physicochemical. Here is the method:
For this observation, the transmittances of aqueous solutions of the draw solutes were measured using a UV/IR spectrometer.

Data set [2] in a line: Measurement of flows and fluxes of water in forward osmosis through cellulose acetate semi-permeable membrane (brine vs draw solution).
Protocol: Referring to FIG. 11, the system has a structure in which glass tubes are arranged to face each other through a semi-permeable membrane. Unpurified water is arranged in one of the glass tubes and a draw solution is arranged in the other glass tube. After the glass tubes are placed in a temperature-controllable water bath, water desalination and purification experiments are conducted. Specifically, the experiments using LCST draw solutes are carried out in the order of low temperature (homogeneous phase) and high temperature (phase transition). The experiments using UCST draw solutes are carried out in the order of high temperature (homogeneous phase) and low temperature (phase transition). As the semi-permeable membrane, a cellulose acetate semi-permeable membrane is used. Specifically, the semi-permeable membrane includes a support layer composed of a polyester fiber coated with polyethylene and a dense layer composed of a cellulose triacetate fiber. The semi-permeable membrane is characterized by the ability to remove 95% or more of salts and low-molecular-weight materials.
Forward osmosis experiments were conducted at laboratory level using the thermo-responsive draw solutes synthesized above. The fluxes and directivities of water at low/high temperatures were confirmed with varying concentrations of brines and the draw solutions.
A stirrer was installed to maintain a uniform state of the solution in each glass tube and a thermostatic bath was installed for temperature control. After the temperature was maintained constant, the flux of water was measured. The amount of water flowing through the membrane was expressed in volume per unit area of the membrane and unit time (L/m^2h, LMH). The fluxes and directivities of water at low and high temperatures were measured at time points of each experiment. For better visual observation, a slight amount of dye was added to the system.
Data set [3] can be described thus: Verification of reproducibility of forward osmosis experiments (repeated low/high temperature cycles). The conditions noted are these: 2.0 M nBu-DETA, positive = flow from brine to nBu-DETA solution. An excerpt: A draw solute for a forward osmosis process should be able to be continuously reused after the process. […] FIG. 26 is a graph showing changes in the flux of water during repeated experiments using 2.0 M nBu-DETA.
In a conventional process using ammonium carbonate/ammonium hydroxide, recondensation is required to reuse recovered ammonia and carbon dioxide molecules. In contrast, in the three repeated cycles of forward osmosis using nBu-DETA as a draw solute, any special process for dissolution except stirring was not carried out but the solute having undergone a phase transition were dissolved when hot water was exchanged with cold water in the thermostatic bath. As a result, similar levels of fluxes were obtained, which can be seen from FIG. 26 and Table 9.

The mark [4] stands for this setting: aqueous solution of LCST draw solute at temperatures lower than the reference temperature.
Where [5] appears, read: aqueous solution of UCST draw solute at temperatures equal to or higher than the reference temperature.

In turn, `CCCCCCOCCOCCO` [DEH] displayed a Transmittance in data set [1] (setting [4]) of 100%. For the same compound, the “Flux (LMH)” value in data set [2] (2 M DEH, 0.025 M NaCl, 40 (+0.5)° C., flow direction DEH→NaCl) came out at 1.6422 LMH; in data set [2] (2 M DEH, 0.05 M NaCl, 40 (+0.5)° C., DEH→NaCl) it was 1.1 LMH; in data set [2] (2 M DEH, 0.1 M NaCl, 40 (+0.5)° C., DEH→NaCl), 0.71 LMH; in data set [2] (2 M DEH, 0.15 M NaCl, 40 (+0.5)° C., DEH→NaCl) it was 0.36 LMH; in data set [2] (4.0 M DEH, 0.60 M NaCl, 18 (±0.5)° C., flow direction NaCl→DEH), 0.29 LMH.

Consider `OCCOc1ccccc1` [EGPE], for which, in data set [1] (setting [5]), the Transmittance is on record as 100%. The “Flux of water from EGPE to NaCl” value in data set [2] (6.4 M EGPE, 0.15 M brine, 5° C. (phase transition)) stood at 0.036 LMH. In addition, in data set [2] (6.4 M EGPE, 0.3 M brine, 50° C.), the “Flux of water from NaCl to EGPE” value came to 0.14 LMH.

In data set [1] (setting [5]), `CC(C)C(=O)O` [IBA] displayed a Transmittance of 100%.

`CC(C)C(N)=O` [IBAm] showed a Transmittance in data set [1] (setting [5]) of 100%.

`CCCCNC(=O)CC` [N-BPA] showed a Transmittance in data set [1] (setting [4]) of 100%.

On to `CCCCCOCC(C)O` (stereo not drawn) [PNP], for which, in data set [1] (setting [4]), the Transmittance stood at 100%.

On to `CCCCC(=O)NCCCN(C)CCCNC(=O)CCCC` [Val-DAPMA], for which the Transmittance in data set [1] (setting [4]) is recorded as 100%.

The compound `CCCCC(=O)NCCN(CC)CC` [Val-DEEA] came in with a Transmittance in data set [1] (setting [4]) of 100%.

For the compound `CCN(CC)CCNC(=O)C(C)C` [iBu-DEEA], the Transmittance in data set [1] (setting [4]) came to 100%.

In the case of `CCCC(=O)NCCCN(C)CCCNC(=O)CCC` [nBu-DAPMA], the Transmittance in data set [1] (setting [4]) is 100%.

As for `CCCC(=O)NCCN(CCNC(=O)CCC)C(=O)CCC` [nBu-DETA], the Transmittance in data set [1] (setting [4]) is recorded as 100%. The “Flux (L/m^2h)” value in data set [3] (18° C., 1 Cycle) is on record as 0.61 L/m^2h; in data set [3] (18° C., 2 Cycle), 0.71 L/m^2h; in data set [3] (18° C., 3 Cycle), 0.71 L/m^2h; in data set [3] (70° C., 1 Cycle), −0.64 L/m^2h; in data set [3] (70° C., 2 Cycle) it was −0.79 L/m^2h; in data set [3] (70° C., 3 Cycle), −0.61 L/m^2h. The Flux of water in data set [2] (0.5M nBu-DETA draw solution, 0.050M NaCl, 18 (±0.5)° C., flow direction NaCl→nBu-DETA) was 1.3 LMH; in data set [2] (0.5M nBu-DETA, 0.10M NaCl, 18 (±0.5)° C., NaCl→nBu-DETA), 0.90 LMH; in data set [2] (0.5M nBu-DETA, 0.15M NaCl, 18 (±0.5)° C., NaCl→nBu-DETA), 0.52 LMH; in data set [2] (1.0M nBu-DETA, 0.10M NaCl, 18 (±0.5)° C., NaCl→nBu-DETA), 1.5 LMH; in data set [2] (1.0M nBu-DETA, 0.15M NaCl, 70 (±0.5)° C., nBu-DETA→NaCl) it was 0.93 LMH; in data set [2] (1.0M nBu-DETA, 0.20M NaCl, 18 (±0.5)° C., NaCl→nBu-DETA) it was 0.77 LMH. Further, the Flux of water is reported as 0.96 LMH in data set [2] (1.0M nBu-DETA, 0.2M NaCl, 70 (±0.5)° C., nBu-DETA→NaCl); 0.52 LMH in data set [2] (1.0M nBu-DETA, 0.30M NaCl, 18 (±0.5)° C., NaCl→nBu-DETA); 1.4 LMH in data set [2] (1.0M nBu-DETA, 0.35M NaCl, 70 (±0.5)° C., nBu-DETA→NaCl); 1.8 LMH in data set [2] (1.0M nBu-DETA, 0.5M NaCl, 70 (±0.5)° C., nBu-DETA→NaCl); 1.2 LMH in data set [2] (1.6M nBu-DETA, 0.15M NaCl, 70 (±0.5)° C., nBu-DETA→NaCl); 1.2 LMH in data set [2] (1.6M nBu-DETA, 0.25M NaCl, 70 (±0.5)° C., nBu-DETA→NaCl). The Flux of water is 1.3 LMH in data set [2] (1.6M nBu-DETA, 0.35M NaCl, 70 (±0.5)° C., nBu-DETA→NaCl); 1.2 LMH in data set [2] (1.6M nBu-DETA, 0.5M NaCl, 70 (±0.5)° C., nBu-DETA→NaCl); −0.071 LMH in data set [2] (2.0M nBu-DETA, 0.05M NaCl, 70 (±0.5)° C., flow direction nBu-DETA→NaCl); 0.36 LMH in data set [2] (2.0M nBu-DETA, 0.1M NaCl, 70 (±0.5)° C., nBu-DETA→NaCl); 0.75 LMH in data set [2] (2.0M nBu-DETA, 0.15M NaCl, 70 (±0.5)° C., nBu-DETA→NaCl); 1.7 LMH in data set [2] (2.0M nBu-DETA, 0.20M NaCl, 18 (±0.5)° C., NaCl→nBu-DETA). Further, the Flux of water in data set [2] (2.0M nBu-DETA, 0.25M NaCl, 70 (±0.5)° C., nBu-DETA→NaCl) is recorded as 0.96 LMH; in data set [2] (2.0M nBu-DETA, 0.35M NaCl, 70 (±0.5)° C., nBu-DETA→NaCl), 1.2 LMH; in data set [2] (2.0M nBu-DETA, 0.40M NaCl, 18 (±0.5)° C., NaCl→nBu-DETA), 0.65 LMH; in data set [2] (2.0M nBu-DETA, 0.5M NaCl, 70 (±0.5)° C., nBu-DETA→NaCl) it was 1.4 LMH; in data set [2] (2.0M nBu-DETA, 0.60M NaCl, 18 (±0.5)° C., NaCl→nBu-DETA), 0.26 LMH.

As to `CCCC(=O)NCCN(C(C)C)C(C)C` [nBu-DIPA], the Transmittance in data set [1] (setting [4]) was determined as 100%.
